This is an account of results in US12172959B2, “Mono- or di-substituted indole derivatives as dengue viral replication inhibitors” (priority 2015, dated 2024).

One data set relates to DENV-2 16681 strain. Kind of data set: DENV-2 antiviral assay (eGFP fluorescence, Vero cells). Type of data set: cell-based, Dengue virus. To be noted: DENV-2 16681 eGFP, MOI 0.5, 3 days. The essentials: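 eGFP-labelled DENV-2 16681 infected Vero cells (2500/well, MEM + 2% FCS) at MOI 0.5, one day after seeding onto 9-step 5-fold compound dilutions. After 3 days at 37 °C, eGFP fluorescence read at 488 nm; % inhibition normalised to virus and cell controls, EC50 by linear interpolation.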

Data set [1] concerns DENV-4 strain SG/06K2270DK1/2005 (Eden). Kind of data set: Tetravalent RT-qPCR assay Protocol A, serotype 4 EDEN. To be noted: Dengue virus, DENV4, Vero, 72 h. The class given is cell-based. The method, then:
The antiviral activity of the compounds of the invention was tested against DENV-1 strain TC974#666 (NCPV; Table 6), DENV-2 strain 16681 (Table 7), DENV-3 strain H87 (NCPV; Table 8) and DENV-4 strains H241 (NCPV; Table 9A) and SG/06K2270DK1/2005 (Eden; Table 9B) in a RT-qPCR assay. Therefore, Vero cells were infected with either DENV-1, or -2, or -3, or -4 in the presence or absence of test compounds. At day 3 post-infection, the cells were lysed and cell lysates were used to prepare cDNA of both a viral target (the 3′UTR of DENV; Table 2) and a cellular reference gene (β-actin, Table 2). Subsequently, a duplex real time PCR was performed on a Lightcycler480 instrument. The generated Cp value is inversely proportional to the amount of RNA expression of these targets. Inhibition of DENV replication by test compound results in a shift of Cp's for the 3′UTR gene. On the other hand, if a test compound is toxic to the cells, a similar effect on β-actin expression will be observed. The comparative ΔΔCp method is used to calculate EC50, which is based on the relative gene expression of the target gene (3′UTR) normalized with the cellular housekeeping gene (β-actin).
The culture medium consisted of minimal essential medium supplemented with 2% of heat-inactivated fetal calf serum, 0.04% gentamycin (50 mg/mL) and 2 mM of L-glutamine. Vero cells, obtained from ECACC, were suspended in culture medium and 75 μL/well was added in 96-well plates (10000 cells/well), which already contain the antiviral compounds. […] In addition, each plate contains wells which are assigned as virus controls (containing cells and virus in the absence of compound) and cell controls (containing cells in the absence of virus and compound). Once the cells were added in the plates, the plates were incubated in a fully humidified incubator (37° C., 5% CO2) until the next day. Dengue viruses serotype-1, 2, 3 and 4 were diluted in order to obtain a Cp of ˜22-24 in the assay. Therefore, 25 μL of virus suspension was added to all the wells containing test compound and to the wells assigned as virus control. In parallel, 25 μL of culture medium was added to the cell controls. Next, the plates were incubated for 3 days in a fully humidified incubator (37° C., 5% CO2). After 3 days, the supernatant was removed from the wells and the cells were washed twice with ice-cold PBS (˜100 μL). The cell pellets within the 96-well plates were stored at −80° C. for at least 1 day. Next, RNA was extracted using the Cells-to-CT™ lysis kit, according to the manufacturer's guideline (Life Technologies). The cell lysates can be stored at −80° C. or immediately used in the reverse transcription step.
In preparation of the reverse transcription step, mix A (table 3A) was prepared and 7.57 μL/well was dispensed in a 96-well plate. After addition of 5 μL of the cell lysates, a five minute denaturation step at 75° C. was performed (table 3B). Afterwards, 7.43 μL of mix B was added (table 3C) and the reverse transcription step was initiated (table 3D) to generate cDNA.
Finally, a RT-qPCR mix was prepared, mix C (table 4A), and 22.02 μL/well was dispensed in 96-well LightCycler qPCR plates to which 3 μL of cDNA was added and the qPCR was performed according to the conditions in table 4B on a LightCycler 480.
Using the LightCycler software and an in-house LIMS system, dose response curves for each compound were calculated and the half maximal effective concentration (EC50) and the half maximal cytotoxic concentration (CC50) were determined.
In general terms: Quantitative PCR measures a nucleic acid by following its amplification.

The subject of a further data set is Vero cells. As to conditions: African green monkey.

As a reminder, the EC50 is the concentration at which the effect is half-maximal. The term CC50 denotes the concentration giving 50% cytotoxicity. Consider `COc1cc(NC(C(=O)c2c[nH]c3c(C)c(OC)ccc23)c2ccc(Cl)cc2OC)cc(S(C)(=O)=O)c1` (single isomer, unassigned) [Compound 6A, 2-(4-chloro-2-methoxyphenyl)-2-((3-methoxy-5-(methyl-sulfonyl)phenyl)amino)-1-(6-methoxy-7-methyl-1H-indol-3-yl)ethanone], for which the values for the EC50 (in the data set on DENV-2 16681 strain; in data set [1]) were 0.068 nM and 0.42 nM, respectively. The compound also registered a CC50 with Vero cells of over 25000 nM.

As for `COc1cc(NC(C(=O)c2c[nH]c3cc(F)ccc23)c2ccc(Cl)cc2OC)cc(S(C)(=O)=O)c1` (single isomer, unassigned) [Compound 1A, 2-(4-chloro-2-methoxyphenyl)-1-(6-fluoro-1H-indol-3-yl)-2-((3-methoxy-5-(methylsulfonyl)phenyl)amino)ethanone], the EC50 in the data set on DENV-2 16681 strain is 0.26 nM; in data set [1], 2.4 nM. Further, it took 4300 nM to reach half-maximal cytotoxicity in the data set on Vero cells (CC50).

As to `COc1cc(NC(C(=O)c2c[nH]c3cc(OC)c(C)cc23)c2ccc(Cl)cc2OC)cc(S(C)(=O)=O)c1` (single isomer, unassigned) [Compound 4A, 2-(4-chloro-2-methoxyphenyl)-2-((3-methoxy-5-(methyl-sulfonyl)phenyl)amino)-1-(6-methoxy-5-methyl-1H-indol-3-yl)ethanone], the 50% effective concentration (EC50) in the data set with DENV-2 16681 strain was 0.27 nM; in data set [1], 0.55 nM. The CC50 in the data set with Vero cells was determined as 4200 nM.

Regarding `COc1cc(NC(C(=O)c2c[nH]c3cc(OC)c(F)cc23)c2ccc(Cl)cc2OC)cc(S(C)(=O)=O)c1` (single isomer, unassigned) [Compound 5A, 2-(4-chloro-2-methoxyphenyl)-1-(5-fluoro-6-methoxy-1H-indol-3-yl)-2-((3-methoxy-5-(methylsulfonyl)phenyl)amino)ethanone], the concentration for a half-maximal effect (EC50) stood at 0.41 nM in the data set on DENV-2 16681 strain and 2.9 nM in data set [1]. The CC50 in the data set with Vero cells is 5000 nM.

Consider `COc1cc(NC(C(=O)c2c[nH]c3c(C)c(F)ccc23)c2ccc(Cl)cc2OC)cc(S(C)(=O)=O)c1` (single isomer, unassigned) [Compound 2A, 2-(4-chloro-2-methoxyphenyl)-1-(6-fluoro-7-methyl-1H-indol-3-yl)-2-((3-methoxy-5-(methylsulfonyl)phenyl)amino)ethanone], for which the EC50 in the data set with DENV-2 16681 strain came out at 0.26 nM; in data set [1], 1.3 nM. Also, in the data set on Vero cells, the half-maximal cytotoxic concentration (CC50) came to 4800 nM.
